Laboratory results published in patent US6809065B2, “Herbicide containing substituted pyrazole derivative as active ingredient” (SDS Biotech K.K., priority 2001, dated 2004).

Tests used:
Chenopodium album [1] = experiment: Upland field foliage treatment (Test Example 1); format: in vivo; conditions: foliage treatment 14th day after sowing, wettable powder, 1 kg active ingredient per hectare, evaluated 21st day after application
Outline: (§1)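 Foliar spray, 1 kg a.i./ha, wettable powder in water, applied 14 d post-sowing; seeds covered by ~1 cm upland soil. Index scoring at 21 d. Higher index = stronger weed control; for crops, lower index = greater safety.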

Digitaria adscendens [2] = experiment: Upland field foliage treatment (Test Example 1); format: in vivo; conditions: foliage treatment 14th day after sowing, wettable powder, 1 kg active ingredient per hectare, evaluated 21st day after application
Outline: as §1

Setaria viridis [3] = experiment: Upland field foliage treatment (Test Example 1); format: in vivo; conditions: foliage treatment 14th day after sowing, wettable powder, 1 kg active ingredient per hectare, evaluated 21st day after application
Outline: as §1

Stellaria media [4] = experiment: Upland field foliage treatment (Test Example 1); format: in vivo; conditions: foliage treatment 14th day after sowing, wettable powder, 1 kg active ingredient per hectare, evaluated 21st day after application
Outline: as §1

soybean (Glycine max) [5] = experiment: Upland field foliage treatment (Test Example 1), crop; format: in vivo; conditions: foliage treatment 14th day after sowing, 1 kg active ingredient per hectare, evaluated 21st day, lower index = higher safety
Outline: as §1

[6] = test system: wheat (Triticum aestivum); experiment: as above; format: in vivo; conditions: foliage treatment 14th day after sowing, 1 kg active ingredient per hectare, evaluated 21st day, lower index = higher safety
Outline: as §1

Chenopodium album [7] = experiment: Upland soil treatment (Test Example 2); format: in vivo; conditions: soil surface treatment next day after sowing, wettable powder, 1 kg active ingredient per hectare, evaluated 21st day after application
Outline: (§2)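 Scored 21 days post-application on an index scale where higher values mean greater herbicidal effect on weeds and lower values mean greater crop safety. Treatment was a water-diluted wettable powder sprayed evenly onto the soil surface at 1 kg active ingredient per hectare, one day after seeding.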

Digitaria adscendens [8] = experiment: Upland soil treatment (Test Example 2); format: in vivo; conditions: soil surface treatment next day after sowing, wettable powder, 1 kg active ingredient per hectare, evaluated 21st day after application
Outline: as §2

Setaria viridis [9] = experiment: Upland soil treatment (Test Example 2); format: in vivo; conditions: soil surface treatment next day after sowing, wettable powder, 1 kg active ingredient per hectare, evaluated 21st day after application
Outline: as §2

Stellaria media [10] = experiment: Upland soil treatment (Test Example 2); format: in vivo; conditions: soil surface treatment next day after sowing, wettable powder, 1 kg active ingredient per hectare, evaluated 21st day after application
Outline: as §2

soybean (Glycine max) [11] = experiment: Upland soil treatment (Test Example 2), crop; format: in vivo; conditions: soil surface treatment next day after sowing, 1 kg active ingredient per hectare, evaluated 21st day, lower index = higher safety
Outline: as §2

[12] = test system: wheat (Triticum aestivum); experiment: Upland soil treatment (Test Example 2), crop; format: in vivo; conditions: soil surface treatment next day after sowing, 1 kg active ingredient per hectare, evaluated 21st day, lower index = higher safety
Outline: as §2

Echinochloa spp. = experiment: Paddy field treatment (Test Example 3); format: in vivo, Echinochloa crusgalli; conditions: paddy pot, submerged 4 cm, dropped on water surface 10th day after transplantation, 1 kg active ingredient per hectare, evaluated 21st day
Outline: (§3)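 Paddy soil in pots was puddled and flooded to 4 cm, weeds were sown, and two-leaf Koshihikari rice was transplanted at 3 cm depth. Ten days after transplanting, wettable powder was applied onto the water surface at 1 kg active ingredient per hectare. Herbicidal effect was index-scored 21 days later.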

Ammannia multiflora = experiment: Paddy field treatment (Test Example 3); format: in vivo; conditions: paddy pot, submerged 4 cm, dropped on water surface 10th day after transplantation, 1 kg active ingredient per hectare, evaluated 21st day
Outline: as §3

Monochoria vaginalis = experiment: Paddy field treatment (Test Example 3); format: in vivo; conditions: paddy pot, submerged 4 cm, dropped on water surface 10th day after transplantation, 1 kg active ingredient per hectare, evaluated 21st day
Outline: as §3

Scirpus juncoides = experiment: Paddy field treatment (Test Example 3); format: in vivo; conditions: paddy pot, submerged 4 cm, dropped on water surface 10th day after transplantation, 1 kg active ingredient per hectare, evaluated 21st day
Outline: as §3

[13] = test system: rice (Oryza sative, variety: Koshihikari); experiment: Paddy field treatment (Test Example 3), crop; format: in vivo, Oryza sativa; conditions: transplanted rice two-leaf period, water surface treatment 10th day after transplantation, 1 kg active ingredient per hectare, evaluated 21st day, lower index = higher safety
Outline: as §3

COC=C(Cn1nc(-c2cc(Cl)ccc2Cl)c(Br)c1C)C(=O)OC [Compound 31]
Herbicidal activity Chenopodium album (Chenopodium album [1]): 5 (herbicidal effect of not less than 90% by weight) | Herbicidal activity Digitaria adscendens (Digitaria adscendens [2]): 5 (herbicidal effect of not less than 90% by weight) | Herbicidal activity Setaria viridis (Setaria viridis [3]): 5 (herbicidal effect of not less than 90% by weight) | Herbicidal activity Stellaria media (Stellaria media [4]): 5 (herbicidal effect of not less than 90% by weight) | Herbicidal activity Glycine max (soybean (Glycine max) [5]): 1 (herbicidal effect of not less than 10% by weight and less than 30% by weight) | Herbicidal activity Triticum aestivum [6]: 1 (herbicidal effect of not less than 10% by weight and less than 30% by weight) | Herbicidal activity Chenopodium album (Chenopodium album [7]): 5 (herbicidal effect of not less than 90% by weight) | Herbicidal activity Digitaria adscendens (Digitaria adscendens [8]): 5 (herbicidal effect of not less than 90% by weight) | Herbicidal activity Setaria viridis (Setaria viridis [9]): 5 (herbicidal effect of not less than 90% by weight) | Herbicidal activity Stellaria media (Stellaria media [10]): 5 (herbicidal effect of not less than 90% by weight) | Herbicidal activity Glycine max (soybean (Glycine max) [11]): 0 (herbicidal effect of not less than 0% by weight and less than 10% by weight) | Herbicidal activity Triticum aestivum [12]: 0 (herbicidal effect of not less than 0% by weight and less than 10% by weight) | Herbicidal activity Echinochloa spp. (Echinochloa spp.): 5 (herbicidal effect of not less than 90% by weight) | Herbicidal activity Ammannia multiflora (Ammannia multiflora): 5 (herbicidal effect of not less than 90% by weight) | Herbicidal activity Monochoria vaginalis (Monochoria vaginalis): 5 (herbicidal effect of not less than 90% by weight) | Herbicidal activity Scirpus juncoides (Scirpus juncoides): 5 (herbicidal effect of not less than 90% by weight) | Herbicidal activity Oryza sativa [13]: 1 (herbicidal effect of not less than 10% by weight and less than 30% by weight)

CCc1c(Br)c(-c2ccccc2)nn1CC(=COC)C(=O)OC [Compound 43]
Herbicidal activity Chenopodium album (Chenopodium album [1]): 5 (herbicidal effect of not less than 90% by weight) | Herbicidal activity Digitaria adscendens (Digitaria adscendens [2]): 4 (herbicidal effect of not less than 70% by weight and less than 90% by weight) | Herbicidal activity Setaria viridis (Setaria viridis [3]): 4 (herbicidal effect of not less than 70% by weight and less than 90% by weight) | Herbicidal activity Stellaria media (Stellaria media [4]): 5 (herbicidal effect of not less than 90% by weight) | Herbicidal activity Glycine max (soybean (Glycine max) [5]): 0 (herbicidal effect of not less than 0% by weight and less than 10% by weight) | Herbicidal activity Triticum aestivum [6]: 0 (herbicidal effect of not less than 0% by weight and less than 10% by weight) | Herbicidal activity Chenopodium album (Chenopodium album [7]): 4 (herbicidal effect of not less than 70% by weight and less than 90% by weight) | Herbicidal activity Digitaria adscendens (Digitaria adscendens [8]): 4 (herbicidal effect of not less than 70% by weight and less than 90% by weight) | Herbicidal activity Setaria viridis (Setaria viridis [9]): 4 (herbicidal effect of not less than 70% by weight and less than 90% by weight) | Herbicidal activity Stellaria media (Stellaria media [10]): 4 (herbicidal effect of not less than 70% by weight and less than 90% by weight) | Herbicidal activity Glycine max (soybean (Glycine max) [11]): 0 (herbicidal effect of not less than 0% by weight and less than 10% by weight) | Herbicidal activity Triticum aestivum [12]: 0 (herbicidal effect of not less than 0% by weight and less than 10% by weight) | Herbicidal activity Echinochloa spp. (Echinochloa spp.): 3 (herbicidal effect of not less than 50% by weight and less than 70% by weight) | Herbicidal activity Ammannia multiflora (Ammannia multiflora): 3 (herbicidal effect of not less than 50% by weight and less than 70% by weight) | Herbicidal activity Monochoria vaginalis (Monochoria vaginalis): 3 (herbicidal effect of not less than 50% by weight and less than 70% by weight) | Herbicidal activity Scirpus juncoides (Scirpus juncoides): 4 (herbicidal effect of not less than 70% by weight and less than 90% by weight) | Herbicidal activity Oryza sativa [13]: 0 (herbicidal effect of not less than 0% by weight and less than 10% by weight)

COC=C(Cn1nc(-c2cc(Cl)ccc2Cl)cc1C)C(=O)OC [Compound 8]
Herbicidal activity Chenopodium album (Chenopodium album [1]): 5 (herbicidal effect of not less than 90% by weight) | Herbicidal activity Digitaria adscendens (Digitaria adscendens [2]): 5 (herbicidal effect of not less than 90% by weight) | Herbicidal activity Setaria viridis (Setaria viridis [3]): 4 (herbicidal effect of not less than 70% by weight and less than 90% by weight) | Herbicidal activity Stellaria media (Stellaria media [4]): 5 (herbicidal effect of not less than 90% by weight) | Herbicidal activity Glycine max (soybean (Glycine max) [5]): 0 (herbicidal effect of not less than 0% by weight and less than 10% by weight) | Herbicidal activity Triticum aestivum [6]: 0 (herbicidal effect of not less than 0% by weight and less than 10% by weight) | Herbicidal activity Chenopodium album (Chenopodium album [7]): 4 (herbicidal effect of not less than 70% by weight and less than 90% by weight) | Herbicidal activity Digitaria adscendens (Digitaria adscendens [8]): 4 (herbicidal effect of not less than 70% by weight and less than 90% by weight) | Herbicidal activity Setaria viridis (Setaria viridis [9]): 4 (herbicidal effect of not less than 70% by weight and less than 90% by weight) | Herbicidal activity Stellaria media (Stellaria media [10]): 4 (herbicidal effect of not less than 70% by weight and less than 90% by weight) | Herbicidal activity Glycine max (soybean (Glycine max) [11]): 0 (herbicidal effect of not less than 0% by weight and less than 10% by weight) | Herbicidal activity Triticum aestivum [12]: 0 (herbicidal effect of not less than 0% by weight and less than 10% by weight) | Herbicidal activity Echinochloa spp. (Echinochloa spp.): 4 (herbicidal effect of not less than 70% by weight and less than 90% by weight) | Herbicidal activity Ammannia multiflora (Ammannia multiflora): 5 (herbicidal effect of not less than 90% by weight) | Herbicidal activity Monochoria vaginalis (Monochoria vaginalis): 5 (herbicidal effect of not less than 90% by weight) | Herbicidal activity Scirpus juncoides (Scirpus juncoides): 4 (herbicidal effect of not less than 70% by weight and less than 90% by weight) | Herbicidal activity Oryza sativa [13]: 0 (herbicidal effect of not less than 0% by weight and less than 10% by weight)

COC=C(Cn1nc(-c2ccccc2)c(C)c1Br)C(=O)OC [Compound 46]
Herbicidal activity Chenopodium album (Chenopodium album [1]): 5 (herbicidal effect of not less than 90% by weight) | Herbicidal activity Digitaria adscendens (Digitaria adscendens [2]): 4 (herbicidal effect of not less than 70% by weight and less than 90% by weight) | Herbicidal activity Setaria viridis (Setaria viridis [3]): 4 (herbicidal effect of not less than 70% by weight and less than 90% by weight) | Herbicidal activity Stellaria media (Stellaria media [4]): 5 (herbicidal effect of not less than 90% by weight) | Herbicidal activity Glycine max (soybean (Glycine max) [5]): 1 (herbicidal effect of not less than 10% by weight and less than 30% by weight) | Herbicidal activity Triticum aestivum [6]: 0 (herbicidal effect of not less than 0% by weight and less than 10% by weight) | Herbicidal activity Chenopodium album (Chenopodium album [7]): 4 (herbicidal effect of not less than 70% by weight and less than 90% by weight) | Herbicidal activity Digitaria adscendens (Digitaria adscendens [8]): 4 (herbicidal effect of not less than 70% by weight and less than 90% by weight) | Herbicidal activity Setaria viridis (Setaria viridis [9]): 4 (herbicidal effect of not less than 70% by weight and less than 90% by weight) | Herbicidal activity Stellaria media (Stellaria media [10]): 4 (herbicidal effect of not less than 70% by weight and less than 90% by weight) | Herbicidal activity Glycine max (soybean (Glycine max) [11]): 0 (herbicidal effect of not less than 0% by weight and less than 10% by weight) | Herbicidal activity Triticum aestivum [12]: 0 (herbicidal effect of not less than 0% by weight and less than 10% by weight) | Herbicidal activity Echinochloa spp. (Echinochloa spp.): 3 (herbicidal effect of not less than 50% by weight and less than 70% by weight) | Herbicidal activity Ammannia multiflora (Ammannia multiflora): 3 (herbicidal effect of not less than 50% by weight and less than 70% by weight) | Herbicidal activity Monochoria vaginalis (Monochoria vaginalis): 3 (herbicidal effect of not less than 50% by weight and less than 70% by weight) | Herbicidal activity Scirpus juncoides (Scirpus juncoides): 3 (herbicidal effect of not less than 50% by weight and less than 70% by weight) | Herbicidal activity Oryza sativa [13]: 0 (herbicidal effect of not less than 0% by weight and less than 10% by weight)
